Inconclusive results and toxic doses are left out. Cut-off read from the data, not from the text of the source: active = T/C of 150% or more; inactive = T/C below 125%.
Test system: L1210 leukemia ip in BDF1 mice, survival T/C
Assay: NCI In Vivo Anticancer Drug Screen. Data for tumor model L1210 Leukemia (intraperitoneal) in B6D2F1 (BDF1) mice
Settings: higher = longer survival
Outline: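 Ratio derived from survival: compound-dosed mice over vehicle-dosed mice, all bearing a transplantable tumor.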

Measured: T/C

O=C1CN=C(c2ccc[nH]2)c2cc(Cl)ccc2N1
active: endpoint: mean survival time, dose: 112.0 mg/kg/injection, schedule: Q01DX015 (ip), vehicle: other 158 % of control | endpoint: mean survival time, dose: 112.5 mg/kg/injection, schedule: Q01DX Z (ip), vehicle: carboxymethylcellulose (CMC) 170 % of control | endpoint: mean survival time, dose: 180.0 mg/kg/injection, schedule: Q01DX009 (ip), vehicle: other 155 % of control | endpoint: median survival time, dose: 400.0 mg/kg/injection, schedule: Q01DX009 (ip), vehicle: steriod suspending solution 150 % of control
inactive: endpoint: mean survival time, dose: 100.0 mg/kg/injection, schedule: Q03HX008 (oral), vehicle: saline with Tween-80 123 % of control | endpoint: mean survival time, dose: 100.0 mg/kg/injection, schedule: Q03HX024 (oral), vehicle: saline with Tween-80 121 % of control | endpoint: mean survival time, dose: 100.0 mg/kg/injection, schedule: Q04DX003 (ip), vehicle: other 105 % of control | endpoint: mean survival time, dose: 100.0 mg/kg/injection, schedule: Q04DX003 (oral), vehicle: saline with Tween-80 109 % of control | endpoint: mean survival time, dose: 100.0 mg/kg/injection, schedule: Q08DX002 (ip), vehicle: other 115 % of control | endpoint: mean survival time, dose: 100.0 mg/kg/injection, schedule: Q08DX002 (oral), vehicle: saline with Tween-80 103 % of control | endpoint: mean survival time, dose: 102.0 mg/kg/injection, schedule: Q01DX007 (oral), vehicle: other 108 % of control | endpoint: mean survival time, dose: 120.0 mg/kg/injection, schedule: Q01DX009 (ip), vehicle: other 116 % of control | endpoint: mean survival time, dose: 156.0 mg/kg/injection, schedule: Q01DX007 (oral), vehicle: other 112 % of control | endpoint: mean survival time, dose: 200.0 mg/kg/injection, schedule: Q01DX001 (ip), vehicle: other 106 % of control | endpoint: mean survival time, dose: 200.0 mg/kg/injection, schedule: Q01DX001 (iv), vehicle: other 108 % of control | endpoint: mean survival time, dose: 200.0 mg/kg/injection, schedule: Q01DX001 (oral), vehicle: saline with Tween-80 116 % of control | endpoint: mean survival time, dose: 200.0 mg/kg/injection, schedule: Q01DX009 (oral), vehicle: saline with Tween-80 109 % of control | endpoint: mean survival time, dose: 200.0 mg/kg/injection, schedule: Q04DX003 (ip), vehicle: other 114 % of control | endpoint: mean survival time, dose: 200.0 mg/kg/injection, schedule: Q04DX003 (oral), vehicle: saline with Tween-80 115 % of control | endpoint: mean survival time, dose: 200.0 mg/kg/injection, schedule: Q08DX002 (ip), vehicle: other 118 % of control | endpoint: mean survival time, dose: 200.0 mg/kg/injection, schedule: Q08DX002 (oral), vehicle: saline with Tween-80 105 % of control | endpoint: mean survival time, dose: 225.0 mg/kg/injection, schedule: Q01DX Z (ip), vehicle: carboxymethylcellulose (CMC) 86 % of control | endpoint: mean survival time, dose: 240.0 mg/kg/injection, schedule: Q01DX007 (oral), vehicle: other 119 % of control | endpoint: mean survival time, dose: 400.0 mg/kg/injection, schedule: Q01DX001 (ip), vehicle: other 112 % of control | endpoint: mean survival time, dose: 400.0 mg/kg/injection, schedule: Q01DX001 (iv), vehicle: other 109 % of control | endpoint: mean survival time, dose: 400.0 mg/kg/injection, schedule: Q01DX001 (oral), vehicle: saline with Tween-80 108 % of control | endpoint: mean survival time, dose: 400.0 mg/kg/injection, schedule: Q01DX009 (ip), vehicle: Klucel (hydroxypropylcellulose) (HPC) 109 % of control | endpoint: mean survival time, dose: 400.0 mg/kg/injection, schedule: Q01DX009 (ip), vehicle: water 108 % of control | endpoint: mean survival time, dose: 400.0 mg/kg/injection, schedule: Q01DX009 (oral), vehicle: saline with Tween-80 105 % of control | endpoint: mean survival time, dose: 400.0 mg/kg/injection, schedule: Q04DX003 (ip), vehicle: other 114 % of control | endpoint: mean survival time, dose: 400.0 mg/kg/injection, schedule: Q08DX002 (ip), vehicle: other 109 % of control | endpoint: mean survival time, dose: 400.0 mg/kg/injection, schedule: Q08DX002 (oral), vehicle: saline with Tween-80 109 % of control | endpoint: mean survival time, dose: 540.0 mg/kg/injection, schedule: Q01DX001 (oral), vehicle: other 110 % of control | endpoint: mean survival time, dose: 720.0 mg/kg/injection, schedule: Q01DX001 (oral), vehicle: other 110 % of control | endpoint: mean survival time, dose: 800.0 mg/kg/injection, schedule: Q08DX002 (oral), vehicle: saline with Tween-80 121 % of control | endpoint: median survival time, dose: 2.0 mg/kg/injection, schedule: Q03HX008 (ip), vehicle: clinical formulation 95 % of control | endpoint: median survival time, dose: 32.0 mg/kg/injection, schedule: Q04DX003 (ip), vehicle: clinical formulation 90 % of control | endpoint: median survival time, dose: 50.0 mg/kg/injection, schedule: Q01DX009 (ip), vehicle: steriod suspending solution 100 % of control | endpoint: median survival time, dose: 50.0 mg/kg/injection, schedule: Q01DX009 (sc), vehicle: steriod suspending solution 100 % of control | endpoint: median survival time, dose: 64.0 mg/kg/injection, schedule: Q01DX001 (ip), vehicle: clinical formulation 95 % of control | endpoint: median survival time, dose: 64.0 mg/kg/injection, schedule: Q04DX003 (ip), vehicle: clinical formulation 100 % of control | endpoint: median survival time, dose: 100.0 mg/kg/injection, schedule: Q01DX001 (ip), vehicle: acid diluted with saline 100 % of control | endpoint: median survival time, dose: 100.0 mg/kg/injection, schedule: Q01DX009 (ip), vehicle: steriod suspending solution 100 % of control | endpoint: median survival time, dose: 100.0 mg/kg/injection, schedule: Q01DX009 (sc), vehicle: steriod suspending solution 100 % of control | endpoint: median survival time, dose: 200.0 mg/kg/injection, schedule: Q01DX001 (ip), vehicle: acid diluted with saline 95 % of control | endpoint: median survival time, dose: 200.0 mg/kg/injection, schedule: Q01DX009 (ip), vehicle: steriod suspending solution 122 % of control | endpoint: median survival time, dose: 200.0 mg/kg/injection, schedule: Q01DX009 (sc), vehicle: steriod suspending solution 100 % of control | endpoint: median survival time, dose: 400.0 mg/kg/injection, schedule: Q01DX009 (sc), vehicle: steriod suspending solution 122 % of control | endpoint: median survival time, dose: 800.0 mg/kg/injection, schedule: Q01DX009 (ip), vehicle: steriod suspending solution 88 % of control

— PubChem BioAssay AID248 (DTP/NCI, 2004)
